Experimental data taken from ChEMBL document CHEMBL5608141, “Identification of compartment-specific drug sensitivities in CRC organoid-stroma co-cultures” (2024).
Non-standard residues stand in square brackets, D forms with d. Residues, ends and D or L forms follow the SMILES beside them. Arg(Me) = CNC(=N)NCCC[C@H](N)C(=O)O; d4Pal = N[C@H](Cc1ccncc1)C(=O)O; azaGly = NNC(=O)O

What was measured:
Assay type in all cases: functional, Homo sapiens
Set-up in all cases: dose or concentration left out as unconfirmed
Colon cancer organoid [1] = test: Identification of compartment-specific drug sensitivities in O06 CRC organoid-stroma F06 CAF co-cultures. Organoid is transduced with Lucferase2-P2A-EGFP lentivirus, fibroblast with Renilla-dsRed lentivirus. Dual-Glo Luciferase assay is used to report viability data.
Colon cancer organoid [2] = test: Identification of compartment-specific drug sensitivities in O14 CRC organoid-stroma F14 CAF co-cultures. Organoid is transduced with Lucferase2-P2A-EGFP lentivirus, fibroblast with Renilla-dsRed lentivirus. Dual-Glo Luciferase assay is used to report viability data.
Colon cancer organoid [3] = test: Identification of compartment-specific drug sensitivities in O20 CRC organoid-stroma F20 CAF co-cultures. Organoid is transduced with Lucferase2-P2A-EGFP lentivirus, fibroblast with Renilla-dsRed lentivirus. Dual-Glo Luciferase assay is used to report viability data.
[4] = Transduced with Lucferase2-P2A-EGFP lentivirus
[5] = Transduced with Renilla-dsRed lentivirus

SMILES | Cell Viability (Colon cancer organoid [1]; [4]) [%] | Cell Viability (Colon cancer organoid [1]; [5]) [%] | Cell Viability (Colon cancer organoid [2]; [4]) [%] | Cell Viability (Colon cancer organoid [2]; [5]) [%] | Cell Viability (Colon cancer organoid [3]; [4]) [%] | Cell Viability (Colon cancer organoid [3]; [5]) [%]
COc1cccc(CNC(=O)c2nc3scc(CN(C)Cc4ccccc4)c3c(=O)[nH]2)c1 [T-26f] | 112.096 | 76.7347 | 126.414 | 118.487 | 156.545 | 109.586
COc1ncc(-c2ccc3nccc(-c4ccnnc4)c3c2)cc1NS(=O)(=O)c1ccc(F)cc1F [OMIPALISIB] | 2.362 | 34.7423 | 6.452 | 40.6761 | 2.282 | 94.8256
CC(=O)Nc1c(F)cc(C(=O)N[C@H]2CC[C@H](O)CC2)cc1O[C@@H](C)c1ccccc1 [GSK046] | 141.493 | 157.689 | 96.2623 | 124.481 | 118.485 | 118.66
Cc1ccc2nc(CNCCCOc3ccccc3)cc(O)c2c1 [UCSF924] | 107.729 | 156.395 | 102.025 | 95.7371 | 115.834 | 125.381
CC(=O)Nc1nc(CN2CCC[C@H](Cc3cc(C)nc(C)c3)C2)cs1 [JNJ-73924149] | 82.0789 | 131.954 | 104.416 | 83.6177 | 90.3874 | 105.251
C=CC(=O)Nc1ccc2[nH]c(=O)n(C3CCN(Cc4ccc(-c5nc6cc[nH]c(=O)c6cc5-c5ccccc5)cc4)CC3)c2c1 [Borussertib] | 51.8578 | 132.383 | 60.6786 | 71.4907 | 47.6492 | 149.193
C[C@@H](NC(=O)Nc1cc2[nH]ncc2c(CO)n1)c1ccccc1 [ERKi] | 82.7933 | 113.572 | 56.1161 | 76.4372 | 50.0756 | 135.339
COc1cc(C(=O)N2CC[C@@H](O)[C@@H](N)C2)cc2nc(-c3cc4ccccc4n3CC3CC3)n(C)c12.Cl | 124.227 | 121.721 | 110.648 | 103.392 | 99.5485 | 114.018
CC(=O)Nc1c(C(C)=O)c(=O)n(C)c2nc(-c3ccc(Cl)cc3Cl)c(-c3ccc(Cl)cc3)cc12 [NAPHTHYRIDINONE] | 72.6588 | 141.036 | 155.496 | 107.032 | 105.882 | 98.6055
Cl.O=C(O)c1cc(-c2ccc(C3CCNCC3)cc2)c2ccc(-c3ccc(C(F)(F)F)cc3)cc2c1 | 107.895 | 117.47 | 158.935 | 99.9399 | 106.654 | 101.384
C[C@@H]1CCN(C(=O)CC#N)C[C@@H]1N(C)c1ncnc2[nH]ccc12.O=C(O)CC(O)(CC(=O)O)C(=O)O [TOFACITINIB CITRATE] | 105.115 | 91.9737 | 83.3835 | 105.446 | 113.321 | 86.9545
COc1cc(Nc2ccnc3ccc(Br)cc23)cc(OC)c1OC | 11.1317 | 122.349 | 56.2839 | 83.5621 | 3.207 | 235.19
COCCN1CCC(c2cc(CN(C)C(=O)c3cccc(Oc4ccccc4)c3)ccn2)CC1 | 91.2389 | 131.922 | 131.353 | 104.266 | 94.6976 | 115.605
CCC(=N\O)/C(C)=C/c1ccc(F)c(C)c1 [A-226] | 127.527 | 100.08 | 131.471 | 101.092 | 93.31 | 115.263
COc1ccccc1-c1cc(Nc2cccc(CS(N)(=O)=O)c2)ncn1 | 105.6 | 95.8866 | 188.969 | 77.1823 | 105.142 | 97.4583
CCN(C(=O)CO)[C@H]1CN(/C(=N\C#N)Nc2cccc(OC(F)F)c2)N=C1c1ccc(Cl)c(Cl)c1 | 100.328 | 102.729 | 106.236 | 108.187 | 98.7267 | 141.776
CNC(=N)NCCC[C@H](NC(=O)[C@H](CC(C)C)NC(=O)NNC(=O)[C@H](Cc1ccccc1)NC(=O)[C@H](CO)NC(=O)[C@H](CC(N)=O)NC(=O)[C@@H](Cc1ccncc1)NC(=O)[C@H](N)Cc1ccc(O)cc1)C(=O)N[C@@H](Cc1ccccc1)C(N)=O [KISS1-305] (H-[dY][d4Pal]NSF[azaGly]L[Arg(Me)]F-NH2) | 113.14 | 104.585 | 102.723 | 96.9932 | 118.72 | 125.679
Cc1cccc(-c2cnc3occ(-c4ccc(C(=O)O)c(C5CCCC5)c4)c3c2)c1 | 94.5335 | 126.561 | 146.067 | 87.0815 | 88.6258 | 133.429
Cc1nc(-c2cn3c(n2)-c2ccc(-c4cnn(C(C)(C)C(N)=O)c4)cc2OCC3)n(C(C)C)n1 [TASELISIB] | 42.3556 | 62.2904 | 38.4959 | 67.2929 | 15.8824 | 146.008
CN1CCN(c2ccc(OC(F)(F)F)c(Nc3ncc4c(n3)-c3c(c(C(N)=O)nn3CCO)CC4)c2)CC1 [ONVANSERTIB] | 2.834 | 160.245 | 2.108 | 79.1847 | 1.999 | 184.086
C[C@H](c1ccc(F)cc1)N(Cc1cccc(C(=O)O)c1)C(=O)c1cnc2ccccc2c1 [PF-05105679] | 130.848 | 113.872 | 130.3 | 106.537 | 143.937 | 111.508
CCCc1cc(C)[nH]c(=O)c1CNC(=O)c1cc(-c2ccnc(N3CCN(C)CC3)c2)cc2c1cnn2C(C)C | 75.6598 | 125.188 | 87.4027 | 100.827 | 56.2508 | 146.305
CCNC(=O)c1cc2c(N3CCOCC3C)ccnc2[nH]1 (centres undefined) | 130.766 | 119.513 | 143.994 | 130.326 | 144.452 | 100.256
Cc1ccccc1Oc1cc(-n2c(=O)cc(C(F)(F)F)[nH]c2=O)c2ccccc2c1Cl [BAY-069] | 128.819 | 153.89 | 126.47 | 121.899 | 84.1162 | 119.466
